The target in the assay is PLK1 (polo-like kinase 1) (Homo sapiens, UniProt P53350). The assay can be described thus: radiometric […]-ATP kinase assay, casein substrate, […] ATP (Reaction Biology). Type of assay: biochemical.
Chain of PLK1 (polo-like kinase 1) (P53350 2-603): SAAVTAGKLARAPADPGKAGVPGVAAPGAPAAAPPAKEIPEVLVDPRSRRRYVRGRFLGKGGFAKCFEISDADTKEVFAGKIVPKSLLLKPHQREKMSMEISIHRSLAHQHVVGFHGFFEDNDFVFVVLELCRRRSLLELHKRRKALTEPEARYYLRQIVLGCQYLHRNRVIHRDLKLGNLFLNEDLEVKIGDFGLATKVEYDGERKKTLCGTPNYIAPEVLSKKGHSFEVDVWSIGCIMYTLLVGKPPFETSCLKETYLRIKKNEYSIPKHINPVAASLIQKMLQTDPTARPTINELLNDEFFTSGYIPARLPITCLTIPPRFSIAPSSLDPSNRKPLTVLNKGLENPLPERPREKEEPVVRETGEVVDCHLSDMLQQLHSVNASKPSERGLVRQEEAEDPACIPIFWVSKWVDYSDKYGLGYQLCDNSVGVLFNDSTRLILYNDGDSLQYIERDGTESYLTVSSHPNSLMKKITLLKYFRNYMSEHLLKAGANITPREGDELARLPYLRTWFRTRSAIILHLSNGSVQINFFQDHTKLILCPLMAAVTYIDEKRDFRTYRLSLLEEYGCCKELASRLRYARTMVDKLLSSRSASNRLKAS

In the case of `CCOC(=O)c1nn(-c2ccnc(Nc3ccc4c(c3)N(C(=O)N(C)C)CC4)n2)cc1/C=C/c1ccccc1` [D39, Ethyl (E)-1-(2-((1-(dimethylcarbamoyl)indolin-6-yl)amino)pyrimidin-4-yl)-4-styryl-1H-pyrazole-3-carboxylate], the midpoint of inhibition, the IC50, lay at 1.43 µM. This lies in the single-digit micromolar range.

The molecule `CN(C)C(=O)N1CCc2ccc(Nc3nccc(-n4cc(/C=C/c5ccccc5)c(C(N)=O)n4)n3)cc21` [D40, (E)-6-((4-(3-carbamoyl-4-styryl-1H-pyrazol-1-yl)pyrimidin-2-yl)amino)-N,N-dimethylindoline-1-carboxamide] yielded a half-inhibitory concentration (IC50) of 0.359 µM. This IC50 lies about 4-fold lower than the previous one.

The record behind these values is PMC9610081, “Design and Synthesis of Aminopyrimidinyl Pyrazole Analogs as PLK1 Inhibitors Using Hybrid 3D-QSAR and Molecular Docking” (Pharmaceuticals, 2022).
